Assays:
rat mGlu1a receptor = target: T1, rat mGlu1a receptor (Rattus norvegicus, UniProt P23385); test: [Ca2+]i measurement (FLIPR) on mGlu1a transfected EBNA cells; format: cell-based; settings: for agonist or antagonist on group I mGlu receptor: mode of action, in words; for EC50: mGlu1a transfected EBNA cells, Fluo-3 AM, antagonists tested against 10 μM glutamate as agonist
T1 construct: expressed in transfected cells; host or cells: EBNA cells (transient transfection)
Description: cDNA encoding for rat mGlula receptor obtained from Prof.
[Ca^2+]i measurement were performed on mGlu1a transfected EBNA cells after incubation of the cells with Fluo-3 AM (0.5 μM final concentration) for 1 hour at 37° C. followed by 4 washes with assay buffer (DMEM supplemented with Hank's salt and 20 mM HEPES). [Ca^2+]i measurement were done using a fluorometric imaging plate reader (FLIPR, Molecular Devices Corporation, La Jolla, Calif., USA). When compounds were evaluated as antagonists they were tested against 10 μM glutamate as agonist.
The inhibition (antagonists) or activation (agonists) curves were fitted with a four parameter logistic equation giving EC50, IC50and Hill coefficient using the iterative non linear curve fitting software Origin (Microcal Software Inc., Northampton, Mass., USA).

T1 sequence (P23385 19-1199): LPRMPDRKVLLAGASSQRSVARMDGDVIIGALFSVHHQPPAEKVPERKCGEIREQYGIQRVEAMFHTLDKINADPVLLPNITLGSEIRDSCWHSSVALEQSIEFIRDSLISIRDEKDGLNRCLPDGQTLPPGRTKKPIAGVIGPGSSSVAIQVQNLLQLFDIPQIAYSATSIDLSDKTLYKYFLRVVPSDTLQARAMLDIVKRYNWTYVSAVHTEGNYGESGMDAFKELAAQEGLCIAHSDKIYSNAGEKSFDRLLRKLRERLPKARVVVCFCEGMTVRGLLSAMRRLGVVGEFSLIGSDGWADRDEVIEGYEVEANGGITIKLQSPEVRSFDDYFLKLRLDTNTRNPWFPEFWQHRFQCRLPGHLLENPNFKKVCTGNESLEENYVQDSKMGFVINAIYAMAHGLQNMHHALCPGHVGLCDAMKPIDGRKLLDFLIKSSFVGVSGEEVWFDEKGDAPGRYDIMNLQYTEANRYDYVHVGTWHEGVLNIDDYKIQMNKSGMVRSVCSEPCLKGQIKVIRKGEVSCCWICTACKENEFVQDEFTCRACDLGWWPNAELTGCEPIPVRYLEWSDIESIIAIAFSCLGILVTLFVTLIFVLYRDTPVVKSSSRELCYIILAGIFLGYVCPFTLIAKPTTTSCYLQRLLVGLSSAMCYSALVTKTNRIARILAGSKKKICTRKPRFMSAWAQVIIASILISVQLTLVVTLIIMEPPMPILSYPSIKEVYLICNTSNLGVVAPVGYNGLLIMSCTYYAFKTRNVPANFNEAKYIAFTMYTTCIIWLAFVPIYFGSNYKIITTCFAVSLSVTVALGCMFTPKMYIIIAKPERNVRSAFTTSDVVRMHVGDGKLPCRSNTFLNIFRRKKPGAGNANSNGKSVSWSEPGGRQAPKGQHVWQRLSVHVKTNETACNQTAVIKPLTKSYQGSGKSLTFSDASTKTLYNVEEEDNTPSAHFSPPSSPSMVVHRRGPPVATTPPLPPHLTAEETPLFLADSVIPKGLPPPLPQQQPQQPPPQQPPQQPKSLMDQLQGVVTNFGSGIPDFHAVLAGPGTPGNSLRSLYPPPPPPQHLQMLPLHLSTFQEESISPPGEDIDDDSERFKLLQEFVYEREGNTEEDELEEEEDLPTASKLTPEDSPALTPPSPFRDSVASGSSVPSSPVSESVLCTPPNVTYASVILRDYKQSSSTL

SMILES | agonist or antagonist on group I mGlu receptor (rat mGlu1a receptor) | melting point | EC50 (rat mGlu1a receptor)
CCCCCNC(=O)C(c1ccccc1)c1ccccc1 [Example 1, N -Pentyl-2,2-diphenyl-acetamide] | – | 101 °C | –
CCCNC(=O)C(c1ccccc1)c1ccccc1 [Example 2, 2,2-Diphenyl-N-propyl-acetamide] | – | 90 °C | 2.12 µM
CCCNC(=O)C(C)(c1ccccc1)c1ccccc1 [Example 3, 2,2-Diphenyl-N-propyl-propionamide] | antagonistic activity | 62 °C | 12.7 µM
CCCCCNC(=O)C(C)(c1ccccc1)c1ccccc1 [Example 4, N-Pentyl-2,2-diphenyl-propionamide] | antagonistic activity | – | 1 µM
CCCCNC(=O)C(c1ccccc1)c1ccccc1 [Example 5, N-Butyl-2,2-diphenyl-acetamide] | – | 96 °C | –
CCCCNC(=O)C(C)(c1ccccc1)c1ccccc1 [Example 6, N-Butyl-2,2-diphenyl-propionamide] | antagonistic activity | – | –
O=C(NC1CC1)C(c1ccccc1)c1ccccc1 [Example 7, N-Cyclopropyl-2,2-diphenyl-acetamide] | – | 292 °C | 17 µM
CCCCCCCNC(=O)C(c1ccccc1)c1ccccc1 [Example 8, N-Heptyl-2,2-diphenyl-acetamide] | – | 90 °C | –
CCCCCCNC(=O)C(c1ccccc1)c1ccccc1 [Example 9, N-Hexyl-2,2-diphenyl-acetamide] | – | 100 °C | –
O=C(NCC1CC1)C(c1ccccc1)c1ccccc1 [Example 10, N-Cyclopropylmethyl-2,2-diphenyl-acetamide] | – | 130 °C | –
CC(C(=O)NCC1CC1)(c1ccccc1)c1ccccc1 [Example 11, N-Cyclopropylmethyl-2,2-diphenyl-propionamide] | antagonistic activity | 380 °C | –
CCNC(=O)C(c1ccccc1)c1ccccc1 [Example 12, N-Ethyl-2,2-diphenyl-acetamide] | – | 87 °C | –
C=CCNC(=O)C(c1ccccc1)c1ccccc1 [Example 13, N-Allyl-2,2-diphenyl-acetamide] | – | 186 °C | –
C#CCNC(=O)C(c1ccccc1)c1ccccc1 [Example 14, 2,2-Diphenyl-N-prop-2-ynyl-acetamide] | – | 131 °C | –

Second part, the compound after the results:

agonist or antagonist on group I mGlu receptor (rat mGlu1a receptor) | melting point | EC50 (rat mGlu1a receptor) | SMILES
antagonistic activity | – | – | O=C(NCC1CC1)C(c1ccccc1)c1ccccn1 (racemic) [Example 22, (RS)-N-Cyclopropylmethyl-2-phenyl-2-pyridin-2-yl-acetamide]
– | 128 °C | – | CC(C)CCNC(=O)C(c1ccccc1)c1ccccc1 [Example 15, N-(3-Methyl-butyl)-2,2-diphenyl-acetamide]
– | 81 °C | – | CCCC=CCNC(=O)C(c1ccccc1)c1ccccc1 [Example 16, N-Hex-2-enyl-2,2-diphenyl-acetamide]
– | 85 °C | – | CC=CCCCNC(=O)C(c1ccccc1)c1ccccc1 [Example 17, N-Hex-4-enyl-2,2-diphenyl-acetamide]
– | 74.2 to 75 °C | – | COCCCCCNC(=O)C(c1ccccc1)c1ccccc1 [Example 18, N-(5-Methoxy-pentyl)-2,2-diphenyl-acetamide]
– | 75.5 to 76.8 °C | 2.98 µM | COCCCCNC(=O)C(c1ccccc1)c1ccccc1 [Example 19, N-(4-Methoxy-butyl)-2,2-diphenyl-acetamide]
– | 83.5 to 86.2 °C | – | CCOCCNC(=O)C(c1ccccc1)c1ccccc1 [Example 20, N-(2-Ethoxy-ethyl)-2,2-diphenyl-acetamide]
– | 77.8 to 78.9 °C | 3.13 µM | CCCOCCNC(=O)C(c1ccccc1)c1ccccc1 [Example 21, 2,2-Diphenyl-N-(2-propoxy-ethyl)-acetamide]
antagonistic activity | 79 °C | – | CC(C(=O)NCC1CCC1)(c1ccccc1)c1ccccc1 [Example 25, N-Cyclobutylmethyl-2,2-diphenyl-propionamide]
antagonistic activity | 166 °C | 15 µM | O=C(NCCCC(F)(F)F)C(c1ccccc1)c1ccccc1 [Example 26, 2,2-Diphenyl-N-(4,4,4-trifluoro-butyl)-acetamide]
antagonistic activity | 82 °C | – | CC(C(=O)NCCCC(F)(F)F)(c1ccccc1)c1ccccc1 [Example 27, 2,2-Diphenyl-N-(4,4,4-trifluoro-butyl)-propionamide]
– | 90 °C | – | C#CCCCNC(=O)C(c1ccccc1)c1ccccc1 [Example 28, N-Pent-4-ynyl-2,2-diphenyl-acetamide]

From patent publication US6548522B1, “Method for treating conditions related to the glutamate receptor using carboxylic acid amide derivatives” (Hoffmann-La Roche Inc., priority 1999, dated 2003)
